Data as given in patent US20120264703A1, “Methods And Compositions For The Treatment Of Anxiety Disorders, Including Post Traumatic Stress Disorder (PTSD) And Related Central Nervous System (CNS) Disorders” (priority 2010, published 2012).
Values belong to the molecule of their own block, whether it stands above or below them.

Experiments:
[1] = target: T1, alkaline phosphatase (Bos taurus, UniProt P19111); experiment: Dephosphorylation of phosphocarvedilol by alkaline phosphatase (HPLC); assay type: biochemical; conditions: alkaline phosphatase 1390 Units, overnight at 37° C., TRIS pH 8.1
T1 construct: purchased Sigma P0114
T1 sequence (P19111 20-506): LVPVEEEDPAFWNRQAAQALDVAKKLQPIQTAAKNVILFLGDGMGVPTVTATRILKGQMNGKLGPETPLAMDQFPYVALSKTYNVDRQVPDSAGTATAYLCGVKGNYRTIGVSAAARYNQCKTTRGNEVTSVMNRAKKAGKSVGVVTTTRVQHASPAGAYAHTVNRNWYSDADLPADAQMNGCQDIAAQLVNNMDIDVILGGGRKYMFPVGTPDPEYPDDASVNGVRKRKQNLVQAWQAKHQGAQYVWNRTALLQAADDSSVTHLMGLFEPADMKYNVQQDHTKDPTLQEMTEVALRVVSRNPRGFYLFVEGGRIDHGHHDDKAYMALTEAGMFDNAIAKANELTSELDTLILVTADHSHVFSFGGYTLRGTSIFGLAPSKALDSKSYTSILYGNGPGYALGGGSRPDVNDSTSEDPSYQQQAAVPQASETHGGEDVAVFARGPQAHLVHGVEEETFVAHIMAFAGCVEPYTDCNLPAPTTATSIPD
Method: The dried residue was reconstituted in a 1 mL solution of TRIS (pH 8.1, 0.05M) and NaCl (0.1M) for dephosphorylation with alkaline phosphatase. Dephosphorylation was initiated by adding 10 μL (1390 Units) of alkaline phosphatase (Sigma P0114) and incubating overnight at 37° C. 10 μL aliquots were removed and diluted to 100 μL in mobile phase before analyzing by injecting onto the HPLC column (as described above) in 20 μL amounts. After treatment with the alkaline phosphatase, a carvedilol peak with a retention time of about 14.95 minutes was detected.

[2] = Clinical trial of carvedilol versus placebo in PTSD: adverse events, blood pressure, heart rate; assay type: in vivo, human
From the text: The efficacy of carvedilol was examined in a clinical trial using a parallel group, randomized, double-blind method with 50% of the outpatients receiving a flexible dose of alpha and beta blocker carvedilol for treatment of PTSD and the other 50% receiving a flexible close of matching placebo tablets. The trial consisted of a one week screening period followed by baseline symptom measurement and five weeks of PTSD pharmacotherapy. Patient assessments took place each week throughout the course of the trial. At the baseline visit, all patients were titrated to one dose of 3.125 mg carvedilol or placebo in the morning and an additional dose in the evening for the first week of the trial (6.25 mg carvedilol per day). At the discretion of the investigator the dose of carvedilol or placebo could be increased to a maximum of two tablets (6.250 mg carvedilol) in the morning and two tablets (6.250 mg carvedilol) in the evening during the following visit (week 1). At the week 2 visit the investigator could increase the dose of carvedilol or placebo to a maximum of 5 pills daily (15.625 mg carvedilol per day) based on patient tolerability and treatment response. After the second visit investigators were encouraged to maintain patient dose throughout the remainder of the five week trial although they were allowed to decrease the dose in the event that tolerability issues arose.

[3] = cited from earlier work
[4] = system: patients with Post Traumatic Stress Disorder (PTSD); experiment: Clinical trial of carvedilol versus placebo in the treatment of PTSD (efficacy scales); assay type: in vivo, human; set-up: key to Davidson Trauma Scale (DTS) change score / mean change score (DTS): change in DTS total score (34-item patient-rated, max 136); key to Insomnia Severity Index (ISI) change score: change in ISI score (self-rated 7-item scale, max 28); key to Davidson Trauma Scale (DTS) change score, mean change (SD): mean (SD) change in DTS total score (max 136); conditions: for Clinician Administered PTSD Scale (CAPS II) change score: completer only analysis
From the text: The efficacy of carvedilol was examined in a clinical trial using a parallel group, randomized, double-blind method with 50% of the outpatients receiving a flexible dose of alpha and beta blocker carvedilol for treatment of PTSD and the other 50% receiving a flexible close of matching placebo tablets. The trial consisted of a one week screening period followed by baseline symptom measurement and five weeks of PTSD pharmacotherapy. Patient assessments took place each week throughout the course of the trial. Patients between 18 and 70 years of age were eligible for enrollment. A minimum score of 60 was required on the Clinician Administered PTSD Scale (CAPS-II) at the screening visit and all patients met clinical criteria for PTSD in accordance with the Diagnostic and Statistical Manual IV and confirmed by the Mini International Neuropsychological Interview (MINI). Eighty-three subjects were enrolled and randomized to carvedilol or placebo. […] The final efficacy analysis included 38 patients allocated to carvedilol, and 39 patients allocated to placebo. All of the patients, study coordinators, and principal investigators were blinded from the patient treatment allocation. Patients were randomly assigned to kits containing carvedilol or placebo at the baseline visit. At the baseline visit, all patients were titrated to one dose of 3.125 mg carvedilol or placebo in the morning and an additional dose in the evening for the first week of the trial (6.25 mg carvedilol per day). At the discretion of the investigator the dose of carvedilol or placebo could be increased to a maximum of two tablets (6.250 mg carvedilol) in the morning and two tablets (6.250 mg carvedilol) in the evening during the following visit (week 1). At the week 2 visit the investigator could increase the dose of carvedilol or placebo to a maximum of 5 pills daily (15.625 mg carvedilol per day) based on patient tolerability and treatment response. After the second visit investigators were encouraged to maintain patient dose throughout the remainder of the five week trial although they were allowed to decrease the dose in the event that tolerability issues arose. Although a minimum score of 60 on the CAPS-II was required at the screening visit as entry criteria, the Davidson Trauma Scale (DTS) was used as primary outcome measurement. The DTS is a 34-item patient rated scale with a maximum total score of 136. The DTS is designed to measure frequency and severity of three subtypes of PTSD symptoms: intrusion, avoidance and hyperarousal. Patients completed the DTS at the baseline visit and at each visit throughout the course of the trial. Secondary outcome measures included the Insomnia Severity Index (ISI), the Clinician Global Impressions (CGI) Scale, and each of the three DTS subscales. The ISI is a self-rated 7-item scale (maximum score=28) designed to measure insomnia during clinical research. The ISI was completed at each visit throughout the trial. The CGI was also completed during each visit. As an additional secondary outcome, the change in CAPS-II score was evaluated from the screening visit to the last trial visit for patients that completed the trial. The trial data analysis was designed to investigate the hypothesis that carvedilol would provide relief from symptoms for patients clinically diagnosed with PTSD. To evaluate this possibility, an analysis of covariance (ANCOVA) test was conducted on the primary outcome variable and a series of independent samples t tests were conducted on secondary outcome variables. Each statistical test was conducted using SPSS version 19.0 (IBM). All patients that completed the baseline visit and at least one follow up measurement were included in the analysis. […] Therefore, the final completed measurement of PTSD symptoms was used as the end data point in the event that patients terminated from the trial early. […]

[5] = low solubility and low absorption; cited from earlier work
[6] = Pharmacokinetic properties of carvedilol by oral dosage form and transdermal patch (Example 6); assay type: in vivo, human
Method: The pharmacokinetic properties of orally and transdermal patch delivered carvedilol can be measured in a human subject or animal model using standard procedures. In brief, a carvedilol oral dosage form of between 5-15 mg can be administered to a human subject in a tablet or capsule. A similar dosage can be administered to a human subject from a transdermal patch that is formulated and evaluated for skin permeation (such as as described by Ubaidulla et al., 2007). After administration of carvedilol, blood samples are drawn from the subject at time intervals (such as 1, 2, 3, 5, 8, 12, and 24 hours), plasma is separated by centrifugation, and plasma samples are stored at −70° C. until analyzed. The plasma carvedilol concentration is measured by reverse phase-high performance liquid chromatography (Ubaidulla et al., 2007).
The plasma concentration of carvedilol at different time intervals is subjected to pharmacokinetic analysis to calculate various parameters: maximum plasma concentration (Cmax), time to reach maximum concentration (Tmax), and area under the plasma concentration-time curve (AUC0→24) as described (Ubaidulla et al., 2007). The values of Cmax and Tmax are read directly from the arithmetic plot of time vs plasma concentration of carvedilol. The AUC is calculated by using the trapezoidal rule. […]

[7] = system: male Sprague-Dawley rats; experiment: Escape/avoidance behavior after tailshock stress (Example 1); assay type: in vivo, rat; conditions: compared to animals that did not receive medication
From the text: Subjects are male, Sprague-Dawley (SD) rats. They are approximately 60-days-old and 300-350 g at the time of testing. They are maintained on ad lib food and water except during the stress and escape/avoidance sessions. Subjects are maintained on a 12:12 light/dark cycle, with lights on at 0700. […] The animals that receive shocks are restrained in plastic tubes (Harvard Apparatus, Inc, Holliston, Mass., USA) and have tail electrodes attached. The single shock session consists of forty 3-s, 2-mA tailshocks, presented on a variable time (VT) 3-min schedule, making the shock session approximately 2 h in duration. Escape/avoidance sessions are conducted in 4 operant chambers (Coulbourn, Inc, Allentown, Pa., USA). The chambers are 30.5 cm wide×25.4 cm deep×30.5 cm high and have a lever mounted on one wall. Subjects are allowed approximately 1 min to explore the chamber before the session begins. The trial begins with a warning signal and houselight. […] 60 s of the warning signal, they receive 1.0-mA footshock through the grid floor. […] A […] shock is classified as an “escape”, while a response that occurred during the initial 60 s of the warning signal before the shock is classified as an “avoidance.” The number of escape and avoidance responses by hour across the session, percent avoidance, and the number of leverpresses during the safety period (a putative measure of anxiety) are analyzed. […]

[8] = in vivo; cited from earlier work
[9] = males and females that were not veterans
[10] = males and females that were not veterans (n=31)

generation of carvedilol by enzymatic dephosphorylation (HPLC) [1]: the carvedilol HPLC peak reappeared
Structure (SMILES): COc1ccccc1OCCNCC(COc1cccc2[nH]c3ccccc3c12)OP(=O)([O-])[O-].[Na+].[Na+] (stereo not drawn)

Cmax, oral versus transdermal patch administration ([6]; oral and transdermal patch): approximately similar
AUC, transdermal patch relative to oral administration ([6]; transdermal patch vs oral): 2.5 to 3 fold
Structure (SMILES): COc1ccccc1OCCNCC(O)COc1cccc2[nH]c3ccccc3c12 (racemic) [carvedilol, (±) 1-(9H-carbazol-4-yloxy)-3-[[2(2-methoxyphenoxy)ethyl]amino]-2-propanol]
patients that reported adverse events ([2]; 28 patients assigned to carvedilol): 66%
mean change in diastolic blood pressure ([2]; baseline visit to end of study): −0.7 mm Hg
mean change in heart rate ([2]; baseline visit to end of study): −3.7 beats/minute
mean change in systolic blood pressure ([2]; baseline visit to end of study): −4.3±9.7 mm Hg
adverse events that occurred in over 5% of carvedilol patients ([2]; human, in vivo): somnolence, headache and common cold
logarithmic partition coefficient, log octanol/buffer pH 7.4 [3]: 0.61±0.06
mean change score (DTS) ([4]; 15 female assault victims (physical or sexual assault)): −31.8
mean DTS change score ([4]; all patients assigned to carvedilol (n=38), baseline to final visit, LOCF, 6.25-15.625 mg per day, five weeks): −24.6 (SD±23.8)
effect size d, change score, carvedilol vs placebo ([4]; female assault victims): 0.95
effect size d, DTS Avoidance Subscale, carvedilol vs placebo [4, 9]: d = 0.21
effect size d, DTS Hyperarousal Subscale, carvedilol vs placebo [4, 9]: d = 0.18
effect size d, DTS Intrusiveness Subscale, carvedilol vs placebo [4, 9]: d = 0.61
effect size d, DTS change score, carvedilol vs placebo [4, 9]: d = 0.36
effect size d, Insomnia Severity Index, carvedilol vs placebo [4, 9]: d = 0.47
DTS Avoidance Subscale change score [4, 10]: −8.7 ± 12.4
DTS Hyperarousal Subscale change score [4, 10]: −7.7 ± 6.3
DTS Intrusiveness Subscale change score [4, 10]: −8.8 ± 8.8
Insomnia Severity Index (ISI) change score [4, 10]: −5.8 ± 6.8
Davidson Trauma Scale (DTS) change score, mean change (SD) ([4]; males and females that were not veterans (n=31, 69% female), LOCF): −25.2 ± 25.3
Clinician Administered PTSD Scale (CAPS II) change score [4, 9]: −20.6 ± 22.2
Clinician's Global Impression (CGI) change score ([4]; men (n=17)): −1.2 ± 1.3
DTS Avoidance Subscale change score ([4]; men (n=17)): −6.4 ± 8.3
DTS Hyperarousal Subscale change score ([4]; men (n=17)): −6.6 ± 7.4
DTS Intrusiveness Subscale change score ([4]; men (n=17)): −5.9 ± 7.5
Insomnia Severity Index (ISI) change score ([4]; men (n=17)): −6.8 ± 6.7
Davidson Trauma Scale (DTS) change score ([4]; men (n=17), baseline to final visit, LOCF): −18.8 (SD±19.1)
Davidson Trauma Scale (DTS) change score ([4]; men (n=17), baseline to final visit, LOCF, listed as Carvedilol): −18.8 ± 19.1
Clinician Administered PTSD Scale (CAPS II) change score ([4]; men, screening visit to week 7 final visit): −16.2 ± 19.0
Clinician's Global Impression (CGI) change score ([4]; women (n=21)): −1.8 ± 0.2
DTS Avoidance Subscale change score ([4]; women (n=21)): −10.4 ± 14.0
DTS Hyperarousal Subscale change score ([4]; women (n=21)): −9.0 ± 8.9
DTS Intrusiveness Subscale change score ([4]; women (n=21)): −9.9 ± 8.2
Insomnia Severity Index (ISI) change score ([4]; women (n=21)): −5.1 ± 6.3
Davidson Trauma Scale (DTS) change score ([4]; women (n=21), baseline to final visit, LOCF): −29.2 (SD±26.5)
Davidson Trauma Scale (DTS) change score ([4]; women (n=21), baseline to final visit, LOCF, listed as Carvedilol): −29.2 ± 26.5
Clinician Administered PTSD Scale (CAPS II) change score ([4]; women, screening visit to week 7 final visit): −21.7 ± 25.2
Biopharmaceutics Classification System class [5]: Class 4
number of avoidance responses 24 h after tailshock [7]: decrease in the number of avoidance response 24 h later
plasma half-life [8]: approximately 6 hours
